Reference: patent US12221646B2, “Method for the rapid determination of susceptibility or resistance of bacteria to antibiotics” (ABM TECHNOLOGIES, LLC, priority 2013, dated 2025)
Where two headings read alike, the source gives them in different places.

Assays:
Format in all cases: cell-based
Klebsiella pneumoniae = test: Cell enlargement after incubation with antibiotic, K. pneumoniae; settings: correlated to CLSI MIC≤4 μg/ml
Method: Klebsiella pneumoniae, another significant pathogen in clinical settings, was also evaluated. […] Strains were considered to be resistant when no cell enlargement was presented at either concentration.

Acinetobacter baumannii [1] = test: MIC of ceftazidime by E-test in A. baumannii strains; settings: read-out: MIC determined by E-test
Pseudomonas aeruginosa = test: Cell enlargement after one hour incubation with antibiotic, P. aeruginosa
Method: Pseudomonas aeruginosa, a common source of dangerous nosocomial infections, was also evaluated. […] Those correlated breakpoint concentrations for enlargement were 0.5 μg/ml for susceptible strains and greater than 1.0 μg/ml for resistant strains.
P. aeruginosa was evaluated for the effect of carbapenems, meropenem and imipenem, which we corroborate that induce cell enlargement in the susceptible strains of this bacterium. CLSI breakpoint concentrations of susceptibility and resistance correspond to MICs≤2-≥8 μg/ml, respectively. For cell enlargement, the new breakpoint concentrations were much lower: ≤0.2->0.5 μg/ml, for susceptibility and resistance, respectively. One hundred and thirty strains of P. aeruginosa were studied, obtaining 97 susceptible, 14 intermediate and 19 resistant to meropenem, following the standard criterion of growth affectation as indicated by MIC-CL SI. All these strains were correctly categorized when using the new breakpoints for enlargement/non-enlargement.

Acinetobacter baumannii [2] = test: Cell enlargement after one hour incubation with antibiotic (microgel, SYBR Gold, fluorescence microscopy), A. baumannii
Method: Each dose was correlated to susceptibility breakpoints established in Example 1. The incubated samples were then assessed under microscopy for enlargement. The criterion of enlargement/non-enlargement was determined by a comparison to a control dose of 0 μg/ml. […] Using the criterion of enlargement/non-enlargement and the correlated breakpoint concentrations, each of the 320 strains were correctly identified.

Compound | breakpoint concentration for cell enlargement, susceptible strains (Klebsiella pneumoniae) | MIC (Acinetobacter baumannii [1]; highly resistant strain of A. baumannii (FIG. 2, fourth row)) | MIC (Acinetobacter baumannii [1]; intermediate strain of A. baumannii (FIG. 2, second row)) | MIC (Acinetobacter baumannii [1]; susceptible strain of A. baumannii (FIG. 2, first row)) | cell enlargement, resistant strains (Pseudomonas aeruginosa; 1 h incubation with 0.5 μg/ml and 1 μg/ml, 5 strains) | cell enlargement, intermediate strains (Pseudomonas aeruginosa; 1 h incubation with 0.5 μg/ml and 1 μg/ml, 8 strains) | cell enlargement, susceptible strains (Pseudomonas aeruginosa; 1 h incubation with 0.5 μg/ml and 1 μg/ml, 117 strains) | breakpoint concentration for cell enlargement, susceptible strains (Pseudomonas aeruginosa; ceftazidime, correlated to CLSI MIC≤8 μg/ml) | breakpoint concentration for cell enlargement, resistant strains (Pseudomonas aeruginosa; ceftazidime, correlated to CLSI MIC≥32 μg/ml) | breakpoint concentration for cell enlargement, intermediate (Acinetobacter baumannii [2]; empirically correlated to CLSI MIC breakpoint 16 μg/ml) | breakpoint concentration for cell enlargement, susceptible (Acinetobacter baumannii [2]; empirically correlated to CLSI MIC breakpoint ≤8 μg/ml) | breakpoint concentration for cell enlargement, resistant (Acinetobacter baumannii [2]; empirically correlated to CLSI MIC breakpoint ≥32 μg/ml) | cell enlargement (Acinetobacter baumannii [2]; highly resistant strain, 1 h incubation, tested 2, 4, 8 μg/ml) | concentration from which cell enlargement is demonstrated (Acinetobacter baumannii [2]; intermediate strain, 1 h incubation, tested 2, 4, 8 μg/ml) | concentration from which cell enlargement is demonstrated (Acinetobacter baumannii [2]; resistant strain, 1 h incubation, tested 2, 4, 8 μg/ml) | concentration from which cell enlargement is demonstrated (Acinetobacter baumannii [2]; susceptible strain, 1 h incubation, tested 2, 4, 8 μg/ml) | cell enlargement, intermediate strains (Pseudomonas aeruginosa; incubation with 0.2 μg/ml and 0.5 μg/ml, 14 strains) | cell enlargement, resistant strains (Pseudomonas aeruginosa; incubation with 0.2 μg/ml and 0.5 μg/ml, 19 strains) | cell enlargement, susceptible strains (Pseudomonas aeruginosa; incubation with 0.2 μg/ml and 0.5 μg/ml, 97 strains)
CC(C)(O/N=C(\C(=O)N[C@@H]1C(=O)N2C(C(=O)[O-])=C(C[n+]3ccccc3)CS[C@H]12)c1csc(N)n1)C(=O)O [ceftazidime] | 0.5 µg/mL | > 256 mg/L | 12 mg/L | 2.5 mg/L | never appeared enlarged | only after 1 μg/ml | appeared enlarged | 0.5 µg/mL | greater than 1.0 μg/ml | 4 µg/mL | ≤ 2 µg/mL | ≥ 8 µg/mL | did not demonstrate enlargement at any tested concentration | 8 µg/mL | 8 µg/mL | 2 µg/mL | – | – | –
C[C@@H](O)[C@H]1C(=O)N2C(C(=O)O)=C(S[C@@H]3CN[C@H](C(=O)N(C)C)C3)[C@H](C)[C@H]12 [meropenem] | – | – | – | – | – | – | – | – | – | – | – | – | – | – | – | – | only after 0.5 μg/ml | never appeared enlarged | appeared enlarged
